Usually Ki stands for a measure of affinity in units of concentration, obtained from inhibition or displacement. The IC50 is the concentration that gives 50% inhibition. A high value points to weaker potency in that assay.

From ChEMBL document CHEMBL1149671, “Enantiopure five-membered cyclicdiamine derivatives as potent and selective inhibitors of factor Xa. Improving in vitro metabolic stability via core modifications” (Bioorg Med Chem Lett, 2007) come the findings set out here.

One assay addresses Coagulation factor X (Homo sapiens, UniProt P00742). Kind of assay: Inhibition of human factor 10a.
Assay [1] in a line: Cytotoxicity against HEK cells. It counts as cell-based. The note with it: Homo sapiens, HEK293.

Molecules are shown by their SMILES. Bounds are passed on as bounds.

Sequence of Coagulation factor X (P00742 41-179 limits assumed): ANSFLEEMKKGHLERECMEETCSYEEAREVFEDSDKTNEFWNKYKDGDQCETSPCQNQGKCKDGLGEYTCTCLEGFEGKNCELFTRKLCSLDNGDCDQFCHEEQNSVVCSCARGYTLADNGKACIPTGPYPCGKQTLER
Sequence of Coagulation factor X (P00742 235-488 limits assumed): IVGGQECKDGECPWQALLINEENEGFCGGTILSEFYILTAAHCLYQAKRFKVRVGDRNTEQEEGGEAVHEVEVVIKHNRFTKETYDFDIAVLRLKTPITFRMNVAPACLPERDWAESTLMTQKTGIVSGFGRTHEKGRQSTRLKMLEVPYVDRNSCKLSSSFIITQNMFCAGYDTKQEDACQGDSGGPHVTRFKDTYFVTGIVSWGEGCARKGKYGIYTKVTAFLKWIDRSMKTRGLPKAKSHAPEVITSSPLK

At Coagulation factor X, `O=C(N[C@H]1CN(C(=O)C2CC2)C[C@H]1NC(=O)c1ccc(Cl)s1)c1ccc(-n2ccccc2=O)cc1` came in with an inhibitory constant (Ki) of 2.1 nM. This compound yielded an IC50 in assay [1] above 100000 nM.

The compound `O=C(N[C@H]1CN(C(=O)c2ccccc2)C[C@H]1NC(=O)c1ccc(Cl)s1)c1ccc(-n2ccccc2=O)cc1` registered a Ki on Coagulation factor X of 2.2 nM. Further, in assay [1], the IC50 is above 100000 nM. `COCC(=O)N1C[C@H](NC(=O)c2ccc(-n3ccccc3=O)cc2)[C@H](NC(=O)c2ccc(Cl)s2)C1`: the Ki at Coagulation factor X was determined as 0.36 nM. The same compound displayed an IC50 in assay [1] above 100000 nM.

The compound `COCCOC(=O)N1C[C@H](NC(=O)c2ccc(-n3ccccc3=O)cc2)[C@H](NC(=O)c2ccc(Cl)s2)C1` registered a Ki at Coagulation factor X of 0.93 nM. The compound also registered a half-inhibitory concentration (IC50) in assay [1] above 100000 nM. The compound `CC(C)S(=O)(=O)N1C[C@H](NC(=O)c2ccc(-n3ccccc3=O)cc2)[C@H](NC(=O)c2ccc(Cl)s2)C1` showed a Ki at Coagulation factor X of 1.7 nM. Further, the concentration for half-maximal inhibition (IC50) in assay [1] is above 100000 nM. At Coagulation factor X, `O=C(N[C@@H]1Cc2ccccc2[C@@H]1NC(=O)c1ccc2c(Cl)c[nH]c2c1)c1ccc(-n2ccccc2=O)cc1` displayed a Ki of 0.21 nM. The compound `O=C(N[C@@H]1Cc2ccccc2[C@@H]1NC(=O)c1ccc(Cl)s1)c1ccc(-n2ccccc2=O)cc1` came in with an inhibitory constant (Ki) at Coagulation factor X of 230 nM. On the same count and under the same terms, with `O=C(N[C@H]1Cc2ccccc2[C@H]1NC(=O)c1ccc(Cl)s1)c1ccc(-n2ccccc2=O)cc1` the figure was 27 nM. The same measure, in the same setting: with `O=C(N[C@@H]1c2ccccc2C[C@@H]1NC(=O)c1ccc(Cl)s1)c1ccc(-n2ccccc2=O)cc1` the figure was 10900 nM.

Take `O=C(N[C@@H]1Cc2ccccc2[C@@H]1NC(=O)c1ccc(-n2ccccc2=O)cc1)c1ccc2c(Cl)c[nH]c2c1`: the Ki at Coagulation factor X was found to be 1 nM.

`COC(=O)[C@H]1C[C@H](NC(=O)c2ccc(-n3ccccc3=O)cc2)[C@H](NC(=O)c2ccc(Cl)s2)C1` had an inhibition constant Ki at Coagulation factor X of 0.53 nM. Regarding `CN(C)C(=O)[C@H]1C[C@H](NC(=O)c2ccc(-n3ccccc3=O)cc2)[C@H](NC(=O)c2ccc(Cl)s2)C1`, the Ki on Coagulation factor X was found to be 2.1 nM. At Coagulation factor X, `O=C(N[C@H]1COC[C@H]1NC(=O)c1ccc2c(Cl)c[nH]c2c1)c1ccc(-n2ccccc2=O)cc1` returned a Ki of 2.6 nM.

For the compound `O=C(N[C@H]1CNC[C@H]1NC(=O)c1ccc2c(Cl)c[nH]c2c1)c1ccc(-n2ccccc2=O)cc1`, the inhibition constant Ki on Coagulation factor X was found to be 18 nM. The same measure, in the same setting: in the case of `CC(=O)N1C[C@H](NC(=O)c2ccc(-n3ccccc3=O)cc2)[C@H](NC(=O)c2ccc3c(Cl)c[nH]c3c2)C1` it was 3.9 nM. At Coagulation factor X, `CCOC(=O)N1C[C@H](NC(=O)c2ccc(-n3ccccc3=O)cc2)[C@H](NC(=O)c2ccc3c(Cl)c[nH]c3c2)C1` gave a Ki of 2.8 nM. With `CC(C)(C)C(=O)N1C[C@H](NC(=O)c2ccc(-n3ccccc3=O)cc2)[C@H](NC(=O)c2ccc(Cl)s2)C1`, the inhibitory constant (Ki) on Coagulation factor X is 1.7 nM. In addition, in assay [1], the half-inhibitory concentration (IC50) is above 100000 nM. For the compound `O=C(N[C@H]1CN(C(=O)OCC2c3ccccc3-c3ccccc32)C[C@H]1NC(=O)c1ccc(Cl)s1)c1ccc(-n2ccccc2=O)cc1`, on Coagulation factor X, the inhibition constant (Ki) turned out to be 4.5 nM. Turning to `O=C(N[C@H]1Cc2ccccc2[C@H]1NC(=O)c1ccc2c(Cl)c[nH]c2c1)c1ccc(-n2ccccc2=O)cc1`, the Ki at Coagulation factor X worked out at 0.84 nM. `COC(=O)C1C[C@H](NC(=O)c2ccc(-n3ccccc3=O)cc2)[C@H](NC(=O)c2ccc(Cl)s2)C1` (stereo partly drawn) had an inhibition constant (Ki) at Coagulation factor X of 0.39 nM.

`O=C(N[C@H]1Cc2ccccc2[C@H]1NC(=O)c1ccc(-n2ccccc2=O)cc1)c1ccc2c(Cl)c[nH]c2c1` showed an inhibition constant Ki on Coagulation factor X of 7.9 nM. The compound `O=C(N[C@H]1C[C@H](C(=O)NC2CC2)C[C@H]1NC(=O)c1ccc(Cl)s1)c1ccc(-n2ccccc2=O)cc1` yielded an inhibition constant (Ki) on Coagulation factor X of 1.6 nM. `COC(=O)C1C[C@H](NC(=O)c2ccc(-n3ccccc3=O)cc2)[C@H](NC(=O)c2ccc3c(Cl)c[nH]c3c2)C1` (stereo partly drawn) gave a Ki on Coagulation factor X of 3 nM. `O=C(N[C@H]1CN(C(=O)N2CCCC2)C[C@H]1NC(=O)c1ccc(Cl)s1)c1ccc(-n2ccccc2=O)cc1` returned a Ki at Coagulation factor X of 1.7 nM. The same compound registered an IC50 in assay [1] above 100000 nM.

In the case of `COCCNC(=O)[C@H]1C[C@H](NC(=O)c2ccc(-n3ccccc3=O)cc2)[C@H](NC(=O)c2ccc(Cl)s2)C1`, at Coagulation factor X, the Ki worked out at 2.9 nM. `O=C(N[C@H]1C[C@H](C(=O)N2CCOCC2)C[C@H]1NC(=O)c1ccc(Cl)s1)c1ccc(-n2ccccc2=O)cc1` yielded a Ki on Coagulation factor X of 1.6 nM.
